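Results reflect a 48-hour exposure of cells in 96-well plates to compound at five concentrations. TGI is the concentration that stops growth completely.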 A value given as a limit tells only on which side of the number the result lay.

Some test systems named below: HT29 colon; KM12 colon; NCI-H522 lung; OVCAR-3 ovarian; A549 NSCLC; OVCAR-5 ovarian; SF-539 CNS; MDA-MB-435; 786-0 renal; UACC-257 melanoma.
Holding throughout (test): inhibition of tumour cell growth, NCI panel, 48 h

For `COc1cccc(N2C(=O)C3c4[nH]c5ccc(C)cc5c4C4CCC(C(C)(C)C)CC4C3C2=O)c1` (centres undefined), the TGI is over 10 µM in the test with HT29 colon; over 10 µM with KM12 colon; 5.66 µM with NCI-H522 lung; over 10 µM in the test on OVCAR-3 ovarian; over 10 µM in the test with A549 NSCLC; 7.81 µM in the test with OVCAR-5 ovarian. Further, the TGI in the test on SF-539 CNS was 7.41 µM; in the test with MDA-MB-435, over 10 µM.
As for `Cc1ccc(/C=C2\CCCC(CN3CCCCC3)C2=O)cc1` (centres undefined), the TGI in the test with HT29 colon was 3.28 µM; with KM12 colon, 2.72 µM; with 786-0 renal, 4.02 µM; in the test on NCI-H522 lung it was 3.22 µM; in the test on OVCAR-3 ovarian, 3.39 µM; with A549 NSCLC it was 33.1 µM. Also, the TGI worked out at 4.02 µM with UACC-257 melanoma, 28.7 µM with OVCAR-5 ovarian, 15.6 µM in the test on SF-539 CNS and 3.81 µM in the test with MDA-MB-435.
For `Cc1ccc2c(=O)cc(-c3ccc(-c4ccccc4)s3)[nH]c2n1`, the TGI in the test with HT29 colon is over 100 µM; in the test with KM12 colon it was over 100 µM; in the test on 786-0 renal, over 100 µM; with NCI-H522 lung it was over 56.7 µM; in the test on OVCAR-3 ovarian it was over 100 µM; in the test with A549 NSCLC, over 100 µM. Besides, the TGI in the test on UACC-257 melanoma is over 100 µM; with OVCAR-5 ovarian it was over 100 µM; in the test on SF-539 CNS it was 36.6 µM; in the test on MDA-MB-435 it was over 100 µM.
In the case of `O=C(O)CNC(=O)c1c2ccccc2nc2ccccc12`, the TGI in the test on HT29 colon, in the test on KM12 colon, with 786-0 renal, in the test on NCI-H522 lung, in the test on OVCAR-3 ovarian and in the test on A549 NSCLC was over 100 µM in each case. The TGI in the test with UACC-257 melanoma, in the test with OVCAR-5 ovarian, in the test with SF-539 CNS and in the test on MDA-MB-435 was over 100 µM each time.
With `Cc1nc(-c2ccc(N=Cc3ccc(N(CCOS(C)(=O)=O)CCOS(C)(=O)=O)cc3C)cc2)cs1`, the TGI is over 100 µM with HT29 colon; over 100 µM in the test with KM12 colon; 47.5 µM with 786-0 renal; over 100 µM in the test with NCI-H522 lung; over 100 µM in the test on OVCAR-3 ovarian; over 100 µM in the test on A549 NSCLC. In addition, the TGI in the test on UACC-257 melanoma is over 100 µM; in the test with OVCAR-5 ovarian it was over 100 µM; in the test on SF-539 CNS, 8.84 µM; in the test on MDA-MB-435 it was over 100 µM.
On to `CC(C)=C/C=C1/CS(=O)(=O)C=C1C`, for which the TGI in the test with HT29 colon, in the test with KM12 colon, with 786-0 renal, in the test on NCI-H522 lung, in the test on OVCAR-3 ovarian and in the test on A549 NSCLC was over 100 µM each time. Besides, the TGI with UACC-257 melanoma, in the test with OVCAR-5 ovarian, in the test on SF-539 CNS and with MDA-MB-435 was over 100 µM throughout.
For the compound `Nc1ccc(CCN2CCN(CCCc3ccccc3)CC2)cc1`, the TGI in the test with HT29 colon, in the test with KM12 colon, with 786-0 renal, with NCI-H522 lung, in the test on OVCAR-3 ovarian and with A549 NSCLC was over 100 µM throughout. The TGI in the test on UACC-257 melanoma, in the test on OVCAR-5 ovarian, with SF-539 CNS and in the test on MDA-MB-435 was over 100 µM in each case.
For `COc1ccc2c(c1)CCN1CCc3cc(OC)c(OC)cc3CC21` (centres undefined), the TGI was over 100 µM in the test with HT29 colon; over 100 µM in the test with KM12 colon; over 100 µM in the test on 786-0 renal; over 10 µM with NCI-H522 lung; over 100 µM in the test on A549 NSCLC; over 100 µM with UACC-257 melanoma. Moreover, the TGI in the test with OVCAR-5 ovarian, in the test on SF-539 CNS and in the test on MDA-MB-435 was over 100 µM throughout.
For `Cc1cc(O)c(C(C)C)cc1C1(c2cc(C(C)C)c(O)cc2C)OC(=O)c2ccccc21`, the TGI in the test on HT29 colon was 5.84 µM; in the test on KM12 colon, 3.33 µM; in the test on 786-0 renal it was 5.52 µM; with NCI-H522 lung, 4.48 µM; in the test on OVCAR-3 ovarian it was 4.85 µM; in the test with A549 NSCLC, 12.8 µM. Also, the TGI in the test with UACC-257 melanoma stood at 3.6 µM; in the test on OVCAR-5 ovarian, 5.92 µM; in the test on SF-539 CNS, 3.72 µM; with MDA-MB-435, 3.01 µM.
For `N#C/C(=C\c1c[nH]c2ccccc12)C(=O)c1ccc(O)c(O)c1`, the TGI in the test with HT29 colon is over 70.8 µM; in the test with KM12 colon it was over 100 µM; with 786-0 renal, over 62 µM; in the test on NCI-H522 lung it was over 93 µM; with OVCAR-3 ovarian it was 17.2 µM; in the test on A549 NSCLC, 98.7 µM. The TGI in the test with UACC-257 melanoma was over 100 µM; in the test with OVCAR-5 ovarian, over 100 µM; in the test with SF-539 CNS it was over 83.7 µM; in the test with MDA-MB-435, over 100 µM.
With `O=C1NC(=S)N(c2ccccc2)C1=O`, the TGI in the test on HT29 colon, in the test with KM12 colon, with 786-0 renal, in the test on NCI-H522 lung, in the test with A549 NSCLC and with UACC-257 melanoma was over 100 µM each time. The TGI in the test on OVCAR-5 ovarian, with SF-539 CNS and in the test with MDA-MB-435 was over 100 µM each time.
Take `CC1OC(OC2C(OC(=O)[C@@H]3CC(C)(C)C[C@H]4C5=CC[C@@H]6[C@@]7(C)C[C@H](O)[C@H](OC8OC(CO)C(O)C(O)C8O)[C@@](C)(CO)[C@@H]7[C@H](O)C[C@@]6(C)[C@]5(C)CC[C@@]34C)OCC(O)C2O)C(O)C(O)C1O` (some centres undefined): the TGI with HT29 colon, in the test with KM12 colon, with 786-0 renal, in the test with NCI-H522 lung, in the test with OVCAR-3 ovarian and in the test with UACC-257 melanoma was over 7.5 µM each time. The TGI in the test on OVCAR-5 ovarian, with SF-539 CNS and in the test with MDA-MB-435 was over 7.5 µM throughout.
With `COc1cccc(NC(=O)C(C#N)=C(SC)SC)c1`, the TGI in the test with HT29 colon, in the test on KM12 colon, with 786-0 renal, with NCI-H522 lung, with A549 NSCLC and in the test with UACC-257 melanoma was over 100 µM throughout. For the same compound, the TGI in the test with OVCAR-5 ovarian, with SF-539 CNS and in the test with MDA-MB-435 was over 100 µM throughout.

The values above are taken from PubChem BioAssay (NCI).
